Assay results taken from US4255433A, “(+)-(3-Methyl-4-oxo-5N-piperidinothiazolidin-2-ylidene)acetic acid esters, method of preparation and use” (Godecke Aktiengesellschaft, priority 1979, dated 1981).
“Also recorded” adds a separate entry of the source. Where two headings read alike, the source gives them in different places.

What was measured:
[1] = Racemization of (+)-ozolinone in 0.1N hydrochloric acid and in chloroform; format: physicochemical; conditions: read-out: degree of racemization
Description: Esterification of the known, optically-active (+)-(3-methyl-4-oxo-5N-piperidinothiazolidin-2-ylidene)-acetic acid [(+)-ozolinone (see Federal Republic of Germany Patent Specification No. 26 58 858)] also cannot be carried out with agents which can be used on a large scale because it racemizes under the esterification conditions. Thus, for example, (+)-ozolinone racemizes to an extent of 15% in 0.1N hydrochloric acid in less than 1 hour. Even in chloroform, in the same period of time, the degree of racemization which occurs is about 10%.

[2] = Acute toxicity in rats (intragastral, 7 days observation, LD50 by Weber's probit analysis); format: in vivo, rat (SIV 50 strain); conditions: rat, in vivo, po
Description: (§1) The experimental animals used were male and female rats of the SIV 50 strain with a body weight of 115 to 170 g and of 100 to 160 g, respectively. All the animals were fasted for 20 hours before the commencement of the experiments, water was available ad libitum. There were 10 animals in each dosage group. The test substances were administered intragastrally with a metal probe in the form of 1% tragacanth slurry suspensions (4 ml/100 g of body weight).
(§2) The animals were observed over a period of time of 7 days. For the calculation of the LD50 with the related confidence limits, use was made of Weber's probit analysis (see Grundriss der Biologischen Statistik, pub. Gustav Fischer Verlag, Jena, 1-72).

awake rats (diuresis) = test: Diuresis in awake rats (urine volume within the first 4 hours); format: in vivo, rat (SIV 50 strain); conditions: intragastral, urine volume in 4 hours, FIG. 2
Description: The experimental animals used were male rats of the SIV 50 strain which were kept under constant conditions. Feed was removed 36 hours before the commencement of the experiments but water was available until just before the commencement of the experiment. The test substances were administered intragastrally as suspensions in 1% tragacanth slurry which has been prepared with a 0.2% sodium chloride solution (1 ml/100 g body weight). In addition, the animals were given intragastrally 4 ml/100 g body weight a 0.2% sodium chloride solution. The animals were kept individually in metabolic cages in order to determine the urine volumes within the first 4 hours.

[3] = tested on: rats with renovascular high blood pressure; test: Renovascular high blood pressure in rats; format: in vivo, rat (SIV 50 strain); parameters: average blood pressure: unit: mmHg
Text: The antihypertensive properties were investigated in rats which, after experimental ligature of the kidney blood flow, had developed a renovascular high blood pressure. The experimental animals used were male rats of the SIV 50 strain which, under ether narcosis, had been monolaterally nephrectomised and the contralateral renal arteries of which had been stenosed 2 days later with the help of silver clips. After 6 to 8 weeks, these animals developed a high blood pressure. The blood pressure measurement took place bloodlessly on the root of the tail of the animals. The test substances were administered intragastrally once daily as tragacanth slurry suspensions for 33 days.

[4] = cited from earlier work
mice = conditions: male mice; literature (Meng-Loew, Diuretika, 1974); cited from earlier work
[5] = tested on: male and female rats of the SIV 50 strain; test: Acute toxicity in rats (intragastral, 7 days observation, LD50 by Weber's probit analysis); format: in vivo, rat (SIV 50 strain); conditions: rat
Description: as §1, §2

[6] = 100 mg/kg i.g., 2nd day after treatment
[7] = 100 mg/kg i.g., 20th day of treatment
[8] = 100 mg/kg i.g., before treatment
[9] = 200 mg/kg i.g., 8th day after treatment
[10] = 200 mg/kg i.g., 10th day of treatment
[11] = 200 mg/kg i.g., 17th day of treatment
[12] = 200 mg/kg i.g., 33rd day of treatment
[13] = 200 mg/kg i.g., before treatment

Row | Compound | LD50 at 168 h ([2]; female rat) [mg/kg] | LD50 at 168 h ([2]; male rat) [mg/kg] | diuretic action (in words) (awake rats (diuresis)) | average blood pressure [3, 6] | average blood pressure [3, 7] | average blood pressure [3, 8] | average blood pressure [3, 9] | average blood pressure [3, 10] | average blood pressure [3, 11] | average blood pressure [3, 12] | average blood pressure [3, 13] | LD50 (mice) | further results
1 | CN1C(=O)C(N2CCCCC2)SC1=CC(=O)O (single isomer, unassigned; (+)) [(+)-ozolinone, (+)-(3-methyl-4-oxo-5N-piperidinothiazolidin-2-ylidene)-acetic acid] | – | – | – | – | – | – | – | – | – | – | – | – | degraded at 1 h ([1]; 0.1N hydrochloric acid, less than 1 hour): 15%; degraded at 1 h ([1]; chloroform, same period of time (less than 1 hour)): ~10%
2 | CCOC(=O)C=C1SC(N2CCCCC2)C(=O)N1C (racemic) [Compound A, ethyl (±)-(3-methyl-4-oxo-5N-piperidinothiazolidin-2-ylidene)acetate] | 10200 | 11000 | diuretically effective in a dosage dependent manner | 195 | 175 | 197 | 182 | 171 | 182 | 174 | 187 | – | antihypertensive activity (in words) ([4]; published): good antihypertensive activity; diuretic / saluretic activity (in words) ([4]; published): strong diuretic and saluretic properties; antihypertensive effect at subdiuretic doses (in words) ([4]; subdiuretic doses, DE 25 32 180): even at subdiuretic doses, an antihypertensive effect occurs
3 | C=C(CC)C(=O)c1ccc(OCC(=O)O)c(Cl)c1Cl [Compound F, [2,3-dichloro-4-(2-methylene-1-oxobutyl)phenoxy]acetic acid] | – | – | – | – | – | – | – | – | – | – | – | 600 mg/kg | –
4 | CCOC(=O)C=C1SC(N2CCCCC2)C(=O)N1C (single isomer, unassigned) [Compound B, ethyl (+)-(3-methyl-4-oxo-5N-piperidinothiazolidin-2-ylidene)acetate] | 4230 | 3650 | diuretically inactive; also recorded: does not possess any diuretic action at all | 190 | 164 | 189 | 182 | 159 | 150 | 156 | 185 | – | LD50 at 168 h ([2]; bound stated): > 2000 mg/kg; acute toxicity (in words) [5]: more toxic than Compound A; also recorded: extraordinarily nontoxic; antihypertensive action (in words) ([3]; rats with renovascular high blood pressure): possesses the strongest antihypertensive action and that this effect is dosage dependent
5 | NS(=O)(=O)c1cc2c(cc1Cl)NCNS2(=O)=O [Compound D, 6-chloro-3,4-dihydro-2H-1,2,4-benzothiadiazine-7-sulphonamide 1,1-dioxide] | – | – | – | – | – | – | – | – | – | – | – | 3,080 mg/kg | –
6 | CCOC(=O)C=C1SC(N2CCCCC2)C(=O)N1C (single isomer, unassigned) [Compound C, ethyl (-)-(3-methyl-4-oxo-5N-piperidinothiazolidin-2-ylidene)acetate] | – | – | diuretically effective in a dosage dependent manner | 201 | 176 | 191 | 190 | 178 | 176 | 164 | 192 | – | –
